Several values for one entry are separate records, joined by “and”; a condition that tells them apart may be missing. Equal values may be shown once.
Columns and labels:
[1] = tested on: existing antibodies (to EF5 and EF3); test: Affinity of existing antibodies towards EF1; type: binding
[2] = Distribution of [^18F]-EF1 in murine organs and tissues; type: in vivo, mice; parameters: Distribution in murine tissues, Kidney / Distribution in murine tissues, Heart / Distribution in murine tissues, Muscle / Distribution in murine tissues, Liver / Distribution in murine tissues, Spleen: unit not given beside the values
Experimental: (§1) To measure the distribution of radioactive drug in various organs and tissues, the solution of [^18F]-EF1 in saline buffer was injected I/V into 2 male Buffalo rats. Animals was sacrificed and the samples of tissues were collected and weighted. The radioactivity of samples was measured by γ-counter and corrected for weight and the time of decay.
The distribution of radioactive drug in various murine organs and tissues was measured similarly to the previous example. [^18F]-EF1 was injected into 4 mice, which were sacrificed after 5 and 90 minutes and the radioactivity of tissues was measured.

[3] = Tissue distribution of [^18F]-EF1 in rats bearing tumors (γ-counter); type: in vivo; conditions: tumor-bearing rat, I/V
Text: (§2) Q7 cells were obtained from the American Type Culture Collection (ATCC). They were maintained in exponential growth by transfers at 3.5 day intervals with standard culture conditions. Growth medium was Eagle's MEM supplemented with 15% fetal calf serum and standard penicillin and streptomycin.
(§3) All animal studies conformed to the regulations of the University of Pennsylvania Institutional Animal Care and Use Committee. Male Buffalo rats (Harlan Sprague Dawley, Indianapolis, Ind., USA) were used for all studies. Donor tumors were created by injecting 1 million Q7 cells subcutaneously into the thigh region. The average growth time to achieve a 1 cm diameter tumor was 21 days. Tumors of less than 2 g were used in the experiments.
as §1
In particular, note that the density of radioactive counts closely parallels the findings from the image analysis. Results from 2 animals, are shown. PET and immunohistochemical images from both animals were very similar (data not shown)

Morris 7777 hepatoma = test: PET image of tumor-bearing rat treated with [^18F]-EF1; type: in vivo; conditions: 150 minutes post injection
Experimental: FIG. 4 illustrates a PET image of a tumor-bearing rat treated with 18-F-labeled EF1 (2-(2-nitro-1H-imidazol-1-yl)-N-3-monofluoropropyl) acetamide, 150 minutes post injection.
as §2, §3
It is believed that this is the first PET image of a rodent tumor where substantial image modifications to eliminate gut clearance effects have not been necessary.

O=C(Cn1ccnc1[N+](=O)[O-])NCCCF [EF1, (2-(2-nitro-1H-imidazol-1-yl)-N-3-monofluoropropyl) acetamide]
Affinity of existing antibodies (to EF5 and EF3) towards compound [1]: only a modest affinity

O=C(Cn1ccnc1[N+](=O)[O-])NCCCF [[^18F]-EF1, (2-(2-nitro-1H-imidazol-1-yl)-N-3-monofluoropropyl) acetamide]
Density of label in mouse-brain tissue compared with other organs ([2]; early times): substantially lower densities
Distribution in murine tissues, Blood ([2]; mouse, 5 minutes): 0.041 and 0.038
Distribution in murine tissues, Brain ([2]; mouse, 5 minutes): 0.004
Distribution in murine tissues, Cecum ([2]; mouse, 5 minutes, Cecum): 0.022 and 0.023
Distribution in murine tissues, Heart ([2]; mouse, 5 minutes): 0.041 and 0.052
Distribution in murine tissues, Intestine ([2]; mouse, 5 minutes): 0.037 and 0.039
Distribution in murine tissues, Kidney ([2]; mouse, 5 minutes): 0.072 and 0.044
Distribution in murine tissues, Liver ([2]; mouse, 5 minutes): 0.064 and 0.050
Distribution in murine tissues, Lung ([2]; mouse, 5 minutes): 0.052 and 0.046
Distribution in murine tissues, Muscle ([2]; mouse, 5 minutes): 0.038 and 0.031
Distribution in murine tissues, Spleen ([2]; mouse, 5 minutes): 0.034 and 0.035
Distribution in murine tissues, Stomach ([2]; mouse, 5 minutes): 0.013
Distribution in murine tissues, Tibia ([2]; mouse, 5 minutes): 0.045 and 0.042
Distribution in murine tissues, Urine ([2]; mouse, 5 minutes): 0.045
Distribution in murine tissues, Blood ([2]; mouse, 90 minutes): 0.005 and 0.007
Distribution in murine tissues, Brain ([2]; mouse, 90 minutes): 0.003 and 0.005
Distribution in murine tissues, Esophagus ([2]; mouse, 90 minutes, Esophagus): 0.012
Distribution in murine tissues, Heart ([2]; mouse, 90 minutes): 0.006 and 0.009
Distribution in murine tissues, Intestine ([2]; mouse, 90 minutes): 0.014 and 0.012
Distribution in murine tissues, Kidney ([2]; mouse, 90 minutes): 0.011 and 0.015
Distribution in murine tissues, Liver ([2]; mouse, 90 minutes): 0.016 and 0.020
Distribution in murine tissues, Lung ([2]; mouse, 90 minutes): 0.007 and 0.005
Distribution in murine tissues, Muscle ([2]; mouse, 90 minutes): 0.005 and 0.009
Distribution in murine tissues, Spleen ([2]; mouse, 90 minutes): 0.005 and 0.007
Distribution in murine tissues, Stomach ([2]; mouse, 90 minutes): 0.007 and 0.009
Distribution in murine tissues, Tail ([2]; mouse, 90 minutes, Tail): 0.071 and 0.051
Distribution in murine tissues, Tibia ([2]; mouse, 90 minutes): 0.079 and 0.064
Distribution in murine tissues, Urine ([2]; mouse, 90 minutes): 0.595 and 0.786
Tissue distribution, Brain ([3]; 3 hrs, Brain): 0.13 % dose/gram and 0.11 % dose/gram
Tissue distribution, Kidney ([3]; 3 hrs, Kidney): 0.54 % dose/gram and 0.29 % dose/gram
Tissue distribution, Liver ([3]; 3 hrs, Liver): 0.25 % dose/gram and 0.21 % dose/gram
Tissue distribution, Muscle ([3]; 3 hrs): 0.17 % dose/gram and 0.13 % dose/gram
Tissue distribution, Spleen ([3]; 3 hrs, Spleen): 0.17 % dose/gram and 0.13 % dose/gram
Tissue distribution, Tumor ([3]; 3 hrs): 0.34 % dose/gram and 0.28 % dose/gram
Tissue distribution, Muscle ([3]; 4 hrs): 0.23 % dose/gram and 0.13 % dose/gram
Tissue distribution, Tumor ([3]; 4 hrs): 0.64 % dose/gram and 0.44 % dose/gram
Visibility of tumor in PET image (Morris 7777 hepatoma): clearly visible
